Assay results: patent US20070128217A1 (priority 2003, published 2007)

Assays:
[1] = test system: rabbit serum obtained by immunizing a rabbit with the SARS-CoV strain Frankfurt 1; format: binding; set-up: Binding of a rabbit serum to linear peptides / Binding of a rabbit serum to looped peptides / Rabbit serum linear peptides / Rabbit serum looped peptides / Binding of a rabbit serum to linear peptides of protein N of SARS-CoV Urbani (Rabbit serum linear peptides) / Binding of a rabbit serum to looped/cyclic peptides of protein N of SARS-CoV Urbani (Rabbit serum looped peptides): unit not given here
[2] = test system: antibodies in sera from SARS patients (sera 1a, 1b, 2, 6, 37, 62, London, SARS-yellow, SARS-green); format: binding, human; set-up: Binding of serum 6 to linear peptides of protein X1 of SARS-CoV Urbani / Binding of serum 37 to linear peptides of protein X1 of SARS-CoV Urbani / Binding of serum 6 to looped/cyclic peptide (PEPSCAN-ELISA) / Binding of serum 37 to looped/cyclic peptide (PEPSCAN-ELISA) / Binding of serum 37 to looped/cyclic peptides of protein X1 of SARS-CoV Urbani / Binding of serum 6 to linear peptides of protein X2 / Binding of serum 37 to linear peptides of protein X2 / Binding of serum 37 to looped/cyclic peptides of protein X2 of SARS-CoV Urbani / Binding of serum 6 to linear peptides of protein M of SARS-CoV Urbani / Binding of serum 37 to linear peptides of protein M of SARS-CoV Urbani / Binding of serum 6 to looped/cyclic peptides of protein M of SARS-CoV Urbani / Binding of serum 37 to looped/cyclic peptides of protein M of SARS-CoV Urbani / Binding of serum 6 to linear peptides of protein X3 of SARS-CoV Urbani / Binding of serum 37 to linear peptides of protein X3 of SARS-CoV Urbani / Binding of serum 37 to looped/cyclic peptides of protein X3 of SARS-CoV Urbani / Binding of serum 6 to linear peptides of protein X4 of SARS-CoV Urbani / Binding of serum 37 to linear peptides of protein X4 of SARS-CoV Urbani / Binding of serum 37 to looped/cyclic peptides of protein X4 of SARS-CoV Urbani / Binding of serum 6 to linear peptides of protein X5 of SARS-CoV Urbani / Binding of serum 37 to linear peptides of protein X5 of SARS-CoV Urbani / Binding of serum 37 to looped/cyclic peptides of protein X5 of SARS-CoV Urbani / Binding of serum 6 to linear peptides of protein N of SARS-CoV Urbani / Binding of serum 37 to linear peptides of protein N of SARS-CoV Urbani / Binding of serum 6 to linear peptide (PEPSCAN-ELISA) / Binding of serum 1a to looped/cyclic peptides of protein N of SARS-CoV Urbani / Binding of serum 1b to looped/cyclic peptides of protein N of SARS-CoV Urbani / Binding of serum 2 to looped/cyclic peptides of protein N of SARS-CoV Urbani / Binding of serum 6 to looped/cyclic peptides of protein N of SARS-CoV Urbani / Binding of serum 37 to looped/cyclic peptides of protein N of SARS-CoV Urbani / Binding of serum 62 to looped/cyclic peptides of protein N of SARS-CoV Urbani / Binding of serum London to looped/cyclic peptides of protein N of SARS-CoV Urbani / Binding of serum SARS-green to looped/cyclic peptides of protein N of SARS-CoV Urbani: unit not given here
[3] = test system: control sera (pooled serum of ten healthy LUMC hospital workers; commercial negative donor pooled serum from the Dutch bloodbank); format: binding, human; set-up: Binding of Control serum LUMC to linear peptides / Binding of Control serum Blood-bank to linear peptides / Binding of Control serum LUMC to looped peptides / Binding of Control Serum Blood-Bank to Looped peptides / Binding of Control serum LUMC to linear peptides of the protein M of SARS-CoV Urbani / Binding of Control serum Blood-bank to linear peptides of the protein M of SARS-CoV Urbani / Binding of Control serum LUMC to looped peptides of the protein M of SARS-CoV Urbani / Binding of Control Serum Blood-Bank to Looped peptides of the protein M of SARS-CoV Urbani: unit not given here

ACADGTRHTYQLRAR
Recognition of the peptide by the rabbit serum [1]: recognized
Binding of serum 1a to linear peptides of protein X4 of SARS-CoV Urbani [2]: 0.7
Binding of serum 1a to looped/cyclic peptides of protein X4 of SARS-CoV Urbani [2]: 0.7
Binding of serum 1b to linear peptides of protein X4 of SARS-CoV Urbani [2]: 0.6
Binding of serum 1b to looped/cyclic peptides of protein X4 of SARS-CoV Urbani [2]: 0.3
Binding of serum 2 to linear peptides of protein X4 of SARS-CoV Urbani [2]: 0.5
Binding of serum 2 to looped/cyclic peptides of protein X4 of SARS-CoV Urbani [2]: 0.6
Binding of serum 6 to linear peptides of protein X4 of SARS-CoV Urbani [2]: 0.6
Binding of serum 6 to looped/cyclic peptides of protein X4 of SARS-CoV Urbani [2]: 0.6
Binding of serum 37 to linear peptides of protein X4 of SARS-CoV Urbani [2]: 0.7
Binding of serum 37 to looped/cyclic peptides of protein X4 of SARS-CoV Urbani [2]: 0.7
Binding of serum 62 to linear peptides of protein X4 of SARS-CoV Urbani [2]: 0.8
Binding of serum 62 to looped/cyclic peptides of protein X4 of SARS-CoV Urbani [2]: 0.6
Binding of serum London to linear peptides of protein X4 of SARS-CoV Urbani [2]: 0.7
Binding of serum London to looped/cyclic peptides of protein X4 of SARS-CoV Urbani [2]: 0.3
Binding of serum SARS-green to linear peptides of protein X4 of SARS-CoV Urbani [2]: 0.7
Binding of serum SARS-green to looped/cyclic peptides of protein X4 of SARS-CoV Urbani [2]: 0.5
Binding of serum SARS-yellow to linear peptides of protein X4 of SARS-CoV Urbani [2]: 0.5
Binding of serum SARS-yellow to looped/cyclic peptides of protein X4 of SARS-CoV Urbani [2]: 0.5
Binding of Control Serum Blood-Bank to Looped peptides [3]: 0.5
Binding of Control serum Blood-bank to linear peptides [3]: 0.6
Binding of Control serum LUMC to linear peptides [3]: 0.6
Binding of Control serum LUMC to looped peptides [3]: 0.5

ACFVLAAVYRINWVT
Rabbit serum linear peptides [1]: 0.4
Rabbit serum looped peptides [1]: 0.3
Binding of serum 1a to linear peptides of protein M of SARS-CoV Urbani [2]: 0.7
Binding of serum 1a to looped/cyclic peptides of protein M of SARS-CoV Urbani [2]: 0.7
Binding of serum 1b to linear peptides of protein M of SARS-CoV Urbani [2]: 0.6
Binding of serum 1b to looped/cyclic peptides of protein M of SARS-CoV Urbani [2]: 0.7
Binding of serum 2 to linear peptides of protein M of SARS-CoV Urbani [2]: 0.5
Binding of serum 2 to looped/cyclic peptides of protein M of SARS-CoV Urbani [2]: 0.5
Binding of serum 6 to linear peptides of protein M of SARS-CoV Urbani [2]: 0.3
Binding of serum 6 to looped/cyclic peptides of protein M of SARS-CoV Urbani [2]: 1.0
Binding of serum 37 to linear peptides of protein M of SARS-CoV Urbani [2]: 0.8
Binding of serum 37 to looped/cyclic peptides of protein M of SARS-CoV Urbani [2]: 0.7
Binding of serum 62 to linear peptides of protein M of SARS-CoV Urbani [2]: 0.9
Binding of serum 62 to looped/cyclic peptides of protein M of SARS-CoV Urbani [2]: 0.6
Binding of serum London to linear peptides of protein M of SARS-CoV Urbani [2]: 0.3
Binding of serum London to looped/cyclic peptides of protein M of SARS-CoV Urbani [2]: 0.3
Binding of serum SARS-green to linear peptides of protein M of SARS-CoV Urbani [2]: 0.3
Binding of serum SARS-green to looped/cyclic peptides of protein M of SARS-CoV Urbani [2]: 0.3
Binding of serum SARS-yellow to linear peptides of protein M of SARS-CoV Urbani [2]: 0.0
Binding of serum SARS-yellow to looped/cyclic peptides of protein M of SARS-CoV Urbani [2]: 0.5
Binding of Control Serum Blood-Bank to Looped peptides of the protein M of SARS-CoV Urbani [3]: 0.7
Binding of Control serum Blood-bank to linear peptides of the protein M of SARS-CoV Urbani [3]: 0.7
Binding of Control serum LUMC to linear peptides of the protein M of SARS-CoV Urbani [3]: 0.3
Binding of Control serum LUMC to looped peptides of the protein M of SARS-CoV Urbani [3]: 0.7

ACLCKHKKVSTNLCT
Binding of a rabbit serum to linear peptides [1]: 0.3
Binding of a rabbit serum to looped peptides [1]: 0.3
Binding of serum 1a to looped/cyclic peptides of protein X2 of SARS-CoV Urbani [2]: 0.3
Binding of serum 1b to looped/cyclic peptides of protein X2 of SARS-CoV Urbani [2]: 0.3
Binding of serum 2 to looped/cyclic peptides of protein X2 of SARS-CoV Urbani [2]: 0.2
Binding of serum 6 to looped/cyclic peptides of protein X2 of SARS-CoV Urbani [2]: 0.2
Binding of serum 37 to looped/cyclic peptides of protein X2 of SARS-CoV Urbani [2]: 0.3
Binding of serum 62 to looped/cyclic peptides of protein X2 of SARS-CoV Urbani [2]: 0.4
Binding of serum London to looped/cyclic peptides of protein X2 of SARS-CoV Urbani [2]: 0.2
Binding of serum SARS-green to looped/cyclic peptides of protein X2 of SARS-CoV Urbani [2]: 0.3
Binding of serum SARS-yellow to looped/cyclic peptides of protein X2 of SARS-CoV Urbani [2]: 0.3
Recognition of the peptide by sera of SARS-CoV infected individuals, and form (linear, looped/cyclic) in which it is recognized [2]: recognized in linear form
Binding of Control Serum Blood-Bank to Looped peptides [3]: 0.2
Binding of Control serum Blood-bank to linear peptides [3]: 0.9
Binding of Control serum LUMC to linear peptides [3]: 0.8
Binding of Control serum LUMC to looped peptides [3]: 0.3
